In one assay the target is T1, human CD38 (Homo sapiens, UniProt P28907).
T1 sequence (P28907 1-300): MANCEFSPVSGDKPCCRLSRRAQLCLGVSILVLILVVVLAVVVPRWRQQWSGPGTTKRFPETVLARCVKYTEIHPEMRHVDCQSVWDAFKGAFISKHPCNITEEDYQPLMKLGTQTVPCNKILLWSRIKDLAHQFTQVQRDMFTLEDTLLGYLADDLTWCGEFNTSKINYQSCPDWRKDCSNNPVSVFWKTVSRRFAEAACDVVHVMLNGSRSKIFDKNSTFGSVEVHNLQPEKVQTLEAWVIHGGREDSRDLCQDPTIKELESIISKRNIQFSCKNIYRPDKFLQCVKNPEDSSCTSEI
Briefly: human recombinant CD38 enzyme assay (hydrolysis of NAD+). It counts as biochemical. Particulars: human recombinant CD38, 0.4 nM enzyme, 62.5 μM NAD+; read-out: hCD38 BioChem IC50. The protocol:
(§1) Compounds described herein were assayed for their ability to inhibit the hydrolysis of NAD+ by the protein CD38. The human and mouse recombinant enzyme assays measure the inhibition of the enzyme activity by compounds using recombinant enzymes and substrates in a buffered cell-free system. The assay conditions closely mimic cellular environments. Dose responses were measured using an assay to detect the hydrolysis of NAD+. All experiments were performed in the 384-well format. […] Enzyme reactions were initiated with the addition of 10 μL of a solution containing NAD+ substrate. Subsequent detection of remaining NAD+ was determined by first converting NAD+ to NADH using alcohol dehydrogenase, then using the resulting NADH to reduce resazurine to the fluorescent product resorufin. […] Following an incubation of 60 min at ambient temperature, 10 μL of 120 mM ethanol+20 U/ml alcohol dehydrogenase+30 mM semicarbazide+0.03 mM CD38 inhibitor in 50 mM HEPES, pH 7.5, 0.2 mg/ml BSA, was added and incubated at ambient temperature for 15 min. Then 10 μl 0.32 mM NaOH was added to stop the ADH reaction (plates incubated at ambient temperature for 15 min), followed by 30 μL of 0.05 mM resazurine+1000 mU/ml Diaphorase in 200 mM Tris-HCl, pH 7.7 for 15 min at ambient temperature. The plates were read for fluorescence (Excitation/Emission=540 nm/590 nm) using an EnVision plate reader. […] Note that, in Table 4, the “Compound No” corresponds to the compound numbers in Table 1.

A further assay deals with T2, mouse CD38 (Mus musculus, UniProt P56528).
T2 sequence (P56528 1-304): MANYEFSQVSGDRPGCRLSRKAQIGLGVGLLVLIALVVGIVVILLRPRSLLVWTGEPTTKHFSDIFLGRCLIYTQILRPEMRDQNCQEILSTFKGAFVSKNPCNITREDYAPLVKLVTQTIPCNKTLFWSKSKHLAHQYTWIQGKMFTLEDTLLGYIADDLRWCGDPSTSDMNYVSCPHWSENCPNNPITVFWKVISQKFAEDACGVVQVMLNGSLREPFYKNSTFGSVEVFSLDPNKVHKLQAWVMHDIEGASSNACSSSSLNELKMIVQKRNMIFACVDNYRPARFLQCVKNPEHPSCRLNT
Briefly: mouse recombinant CD38 enzyme assay (hydrolysis of NAD+). Conditions: read-out: mCD38 BioChem IC50. It counts as biochemical. The protocol: as §1

Turning to `O=C(Nc1cccnc1)c1cc(C(F)(F)F)cc(-c2cncs2)n1` [Compound 41, N-(pyridin-3-yl)-6-(thiazol-5-yl)-4-(trifluoromethyl)picolinamide], the figures for the IC50 at human CD38 and at mouse CD38 were 1210 nM and 244 nM, respectively.

Take `O=C(Nc1ccc(C(F)(F)F)nc1)c1cccc(-c2cncs2)n1` [Compound 50, 6-(thiazol-5-yl)-N-(6-(trifluoromethyl)pyridin-3-yl)picolinamide]: the half-maximal inhibitory concentration (IC50) (as a rule, the midpoint of a concentration-inhibition curve) on human CD38 was 1440 nM; at mouse CD38, 855 nM.

Take `Cc1ccc(NC(=O)c2cccc(-c3cncs3)n2)cn1` [Compound 51, N-(6-methylpyridin-3-yl)-6-(thiazol-5-yl)picolinamide]: the half-maximal inhibitory concentration (IC50) on human CD38 was found to be 1200 nM; on mouse CD38, 487 nM.

For `O=C(NC1(c2ccc(C(F)(F)F)cc2)COC1)c1cccc(-n2ccnc2)n1` [Compound 58, 6-(1H-imidazol-1-yl)-N-(3-(4-(trifluoromethyl)phenyl)oxetan-3-yl)picolinamide], the concentration for half-maximal inhibition (IC50) on human CD38 amounted to 2180 nM; on mouse CD38 it was 1040 nM.

`NC(=O)c1cn(-c2cccc(C(=O)Nc3ccc(C(F)(F)F)nc3)n2)cn1` [Compound 76, 6-(4-carbamoyl-1H-imidazol-1-yl)-N-(6-(trifluoromethyl)pyridin-3-yl)picolinamide]: the IC50 at human CD38 worked out at 905 nM; at mouse CD38, 3200 nM.

Turning to `CO[C@H]1CC[C@H](NC(=O)c2cc(C3CC3)nc(-c3cncs3)n2)CC1` [Compound 108, 6-Cyclopropyl-N-((1r,4r)-4-methoxycyclohexyl)-2-(thiazol-5-yl)pyrimidine-4-carboxamide], the IC50 on human CD38 came to 711 nM; on mouse CD38, 33 nM.

Take `O=C(Nc1ccc(C(F)(F)F)nc1)c1cc(C2CC2)nc(-c2cncs2)n1` [Compound 109, 6-cyclopropyl-2-(thiazol-5-yl)-N-(6-(trifluoromethyl)pyridin-3-yl)pyrimidine-4-carboxamide]: the IC50 worked out at 312 nM on human CD38 and 66 nM on mouse CD38.

In the case of `C[C@H]1CC[C@H](NC(=O)c2ccnc(-c3cncs3)n2)CC1` [Compound 112, N-((1r,4r)-4-methylcyclohexyl)-2-(thiazol-5-yl)pyrimidine-4-carboxamide], the IC50 was 639 nM at human CD38 and 158 nM at mouse CD38.

Turning to `CO[C@H]1CC[C@H](NC(=O)c2ccnc(-c3cncs3)n2)CC1` [Compound 113, N-((1r,4r)-4-methoxycyclohexyl)-2-(thiazol-5-yl)pyrimidine-4-carboxamide], the values for the half-maximal inhibitory concentration (IC50) at human CD38 and on mouse CD38 were 569 nM and 166 nM, respectively.

Consider `O=C(Nc1ccc(C(F)(F)F)nc1)c1cc(C(F)(F)F)nc(-c2cncs2)n1` [Compound 115, 2-(thiazol-5-yl)-6-(trifluoromethyl)-N-(6-(trifluoromethyl)pyridin-3-yl)pyrimidine-4-carboxamide], for which the IC50 at human CD38 was found to be 1260 nM; at mouse CD38, 494 nM.

Turning to `CO[C@H]1CC[C@H](NC(=O)c2cc(O)nc(-n3ccnc3)n2)CC1` [Compound 126, 6-hydroxy-2-(1H-imidazol-1-yl)-N-((1r,4r)-4-methoxycyclohexyl)pyrimidine-4-carboxamide], the IC50 came to 841 nM on human CD38 and 84 nM on mouse CD38.

On to `CO[C@H]1CC[C@H](NC(=O)c2cc(C)cc(-c3cncs3)n2)CC1` [Compound 133, N-(4-methoxycyclohexyl)-4-methyl-6-(thiazol-5-yl)picolinamide], for which the half-inhibitory concentration (IC50) was 1730 nM at human CD38 and 135 nM at mouse CD38.

For `COC[C@H]1CC[C@H](NC(=O)c2ccnc(-c3cncs3)n2)CC1` [Compound 139, N-((1r,4r)-4-(methoxymethyl)cyclohexyl)-2-(thiazol-5-yl)pyrimidine-4-carboxamide], the concentration for half-maximal inhibition (IC50) on human CD38 was 1010 nM; on mouse CD38, 232 nM.

Take `O=C(N[C@H]1CC[C@H](CO)CC1)c1ccnc(-c2cncs2)n1` [Compound 140, N-((1r,4r)-4-(hydroxymethyl)cyclohexyl)-2-(thiazol-5-yl)pyrimidine-4-carboxamide]: the IC50 amounted to 747 nM on human CD38 and 117 nM at mouse CD38.

In the case of `O=C(N[C@H]1CC[C@H](CO)CC1)c1cc(C2CC2)nc(-c2cncs2)n1` [Compound 141, 6-cyclopropyl-N-((1r,4r)-4-(hydroxymethyl)cyclohexyl)-2-(thiazol-5-yl)pyrimidine-4-carboxamide], the IC50 on human CD38 was found to be 761 nM; on mouse CD38 it was 28 nM.

With `O=C(NC1CCS(=O)(=O)CC1)c1cc(C2CC2)nc(-c2cncs2)n1` [Compound 142, 6-cyclopropyl-N-(1,1-dioxidotetrahydro-2H-thiopyran-4-yl)-2-(thiazol-5-yl)pyrimidine-4-carboxamide], the figures for the half-inhibitory concentration (IC50) at human CD38 and on mouse CD38 were 1720 nM and 161 nM, respectively.

In the case of `O=C(Nc1ccc(C(F)(F)F)nc1)c1cccc(-n2cnnc2)n1` [Compound 143, 6-(4H-1,2,4-triazol-4-yl)-N-(6-(trifluoromethyl)pyridin-3-yl)picolinamide], the 50% inhibitory concentration (IC50) at human CD38 was determined as 2040 nM; on mouse CD38, 1970 nM.

On to `O=C(Nc1ccc(C(F)F)nc1)c1nccc(-c2cncs2)n1` [Compound 150, N-(6-(difluoromethyl)pyridin-3-yl)-4-(thiazol-5-yl)pyrimidine-2-carboxamide], for which the concentration for half-maximal inhibition (IC50) stood at 1060 nM on human CD38 and 4990 nM at mouse CD38.

Regarding `CO[C@H]1CC[C@H](NC(=O)c2cc(C3CC3)nc(-n3ccnc3)n2)CC1` [Compound 160, 6-cyclopropyl-2-(1H-imidazol-1-yl)-N-((1r,4r)-4-methoxycyclohexyl)pyrimidine-4-carboxamide], the half-inhibitory concentration (IC50) was 27 nM on human CD38 and 4 nM on mouse CD38.

`CO[C@H]1CC[C@H](NC(=O)c2cc(C(C)C)nc(-n3ccnc3)n2)CC1` [Compound 167, 2-(1H-imidazol-1-yl)-6-isopropyl-N-((1r,4r)-4-methoxycyclohexyl)pyrimidine-4-carboxamide]: the IC50 amounted to 214 nM at human CD38 and 46 nM on mouse CD38.

Consider `Cn1cncc1-c1nc(C(=O)Nc2ccc(C(F)(F)F)nc2)cc(C(C)(C)O)n1` [Compound 176, 6-(2-hydroxypropan-2-yl)-2-(1-methyl-1H-imidazol-5-yl)-N-(6-(trifluoromethyl)pyridin-3-yl)pyrimidine-4-carboxamide], for which the IC50 was found to be 28 nM on human CD38 and 19 nM at mouse CD38.

For `Cn1cncc1-c1nc(C(=O)N[C@H]2CC[C@H](C(F)F)CC2)cc(C(C)(C)O)n1` [Compound 177, N-((1r,4r)-4-(difluoromethyl)cyclohexyl)-6-(2-hydroxypropan-2-yl)-2-(1-methyl-1H-imidazol-5-yl)pyrimidine-4-carboxamide], the IC50 at human CD38 was 35 nM; on mouse CD38 it was 9 nM.

For `CO[C@H]1CC[C@H](NC(=O)c2cc(C(C)(C)O)nc(-c3cncn3C)n2)CC1` [Compound 178, 6-(2-Hydroxypropan-2-yl)-N-((1r,4r)-4-methoxycyclohexyl)-2-(1-methyl-1H-imidazol-5-yl)pyrimidine-4-carboxamide], the IC50 on human CD38 came out at 57 nM; at mouse CD38, 13 nM.

`O=C(Nc1ccc(C(F)F)nc1)c1cc(N2CCCC2)cc(-c2cncs2)n1` [Compound 179, N-(6-(Difluoromethyl)pyridin-3-yl)-4-(pyrrolidin-1-yl)-6-(thiazol-5-yl)picolinamide]: the IC50 on human CD38 is 1380 nM; at mouse CD38 it was 142 nM.

Consider `CO[C@H]1CC[C@H](NC(=O)c2cc(N3CCCC3)cc(-n3ccnc3)n2)CC1` [Compound 180, 6-(1H-imidazol-1-yl)-N-(4-methoxycyclohexyl)-4-(pyrrolidin-1-yl)picolinamide], for which the IC50 on human CD38 was 78 nM; on mouse CD38 it was 8 nM.

On to `CO[C@H]1CC[C@H](NC(=O)c2cc(C3CCC3)nc(-c3cncn3C)n2)CC1` [Compound 181, 6-Cyclobutyl-N-((1r,4r)-4-methoxycyclohexyl)-2-(1-methyl-1H-imidazol-5-yl)pyrimidine-4-carboxamide], for which the half-inhibitory concentration (IC50) at human CD38 was found to be 14 nM; on mouse CD38, 2 nM.

`Cn1cncc1-c1nc(C(=O)NC2CCC(F)(F)CC2)cc(C2CCC2)n1` [Compound 182, 6-cyclobutyl-N-(4,4-difluorocyclohexyl)-2-(1-methyl-1H-imidazol-5-yl)pyrimidine-4-carboxamide]: the IC50 on human CD38 was found to be 11 nM; at mouse CD38, 2 nM.

For the origin of these results see US20230116972A1, “CD38 MODULATORS AND METHODS OF USE THEREOF” (Cytokinetics, Inc., priority 2021, published 2023).
